Test system: CVD (CHD or stroke)
Assay: WOSCOPS: SNP by pravastatin treatment interaction, logistic regression (synergy index), CVD endpoint
Format: in vivo, human
Conditions: for OR: WOSCOPS; for WOSCOPS OR: endpoint CVD
Source text: CARE was a secondary prevention trial and WOSCOPS was a primary prevention trial.
The CHD endpoint was defined in the analyses herein of CARE as a composite endpoint of fatal CHD, definite non-fatal MI, or revascularization, and was defined in the analyses herein of WOSCOPS as a composite endpoint of death from CHD, nonfatal MI, or revascularization. In both the CARE and WOSCOPS analyses herein, the CVD endpoint was defined as a composite endpoint of CHD or stroke. […] Revascularization, which can include percutaneous transluminal coronary angioplasty (PTCA), stent placement, and coronary artery bypass graft (CABG), are medical interventions that indicate the presence of CHD.
Cohort and case-only study designs were used to identify SNPs associated with response to statin treatment.
For each SNP, a logistic regression model having treatment status as the dependent variable and SNP as the independent predictor variable was performed, with terms for age, sex and race included in the model as covariates. The anti-log of the regression coefficient corresponding to the SNP is an estimate of the synergy index (SI) (Davis et al., “Imputing gene-treatment interactions when the genotype distribution is unknown using case-only and putative placebo analyses-a new method for the Genetics of Hypertension Associated Treatment (GenHAT) study”, Statistics in Medicine 23: (2004), pages 2413-2427). The SI is a ratio of odds ratios: for example in the CARE and WOSCOPS studies, the SI represents the factor by which the odds-ratio of statin treatment, compared with placebo, among major homozygous individuals is multiplied by in order to obtain the odds-ratio of treatment vs. placebo among heterozygous individuals; and multiplied by a second time to obtain the odds-ratio of treatment vs. placebo in minor homozygous individuals. […] In a randomized clinical trial, genotype and treatment are independent by design.

## CC[C@H](C)C(=O)O[C@H]1C[C@H](O)C=C2C=C[C@H](C)[C@H](CC[C@@H](O)C[C@@H](O)CC(=O)O)[C@H]21 [Pravastatin, pravastatin]
rs1884902 allele C REC Imputed
  OR: 1.796
rs1913201 allele G ADD Imputed
  OR: 0.7632
rs1913201 allele G DOM Imputed
  OR: 0.5772
rs1944279 allele A ADD Imputed
  OR: 1.444
rs1987179 allele T DOM Imputed
  OR: 0.6667
rs1990023 allele T DOM Imputed
  OR: 0.6024
rs2016194 allele G DOM Imputed
  OR: 0.602
rs2024789 allele C ADD Imputed
  OR: 0.7464
rs2024902 allele A ADD Imputed
  OR: 2.395
rs2024902 allele A DOM Imputed
  OR: 2.659
rs2025107 allele A ADD Imputed
  OR: 2.387
rs2025107 allele A DOM Imputed
  OR: 2.904
rs2025108 allele T ADD Imputed
  OR: 2.387
rs2025108 allele T DOM Imputed
  OR: 2.904
rs2062448 allele T ADD Imputed
  OR: 0.4148
rs2062448 allele T DOM Imputed
  OR: 0.4153
rs2063591 allele C ADD Imputed
  OR: 0.7711
rs2063591 allele C DOM Imputed
  OR: 0.5884
rs2065604 allele C DOM Imputed
  OR: 0.4711
rs2066238 allele T DOM Imputed
  OR: 0.6821
rs2068051 allele G ADD Imputed
  OR: 0.6426
rs2095586 allele A DOM Imputed
  OR: 1.351
rs2108426 allele C DOM Imputed
  OR: 0.5994
rs2110664 allele A DOM Imputed
  OR: 1.697
rs2132242 allele A DOM Imputed
  OR: 0.6291
rs2151644 allele T DOM Imputed
  OR: 0.4711
rs2158958 allele A DOM Imputed
  OR: 0.6021
rs2158961 allele G DOM Imputed
  OR: 0.6113
rs2164099 allele G ADD Imputed
  OR: 1.424
rs2173254 allele G REC Imputed
  OR: 0.3756
rs2188079 allele C ADD Imputed
  OR: 1.5
rs2190304 allele G REC Imputed
  OR: 0.628
rs2190597 allele T DOM Imputed
  OR: 0.7825
rs2190598 allele T DOM Imputed
  OR: 0.6021
rs2190600 allele A DOM Imputed
  OR: 0.6022
rs2218084 allele T REC Imputed
  OR: 4.673
rs2290193, rec, Caseonly, CVD, pravastatin vs placebo
  OR: 0.35
rs2626130, add, Caseonly, CVD, pravastatin vs placebo
  OR: 1.37
rs4289236, add, Caseonly, CVD, pravastatin vs placebo
  OR: 1.49
rs4611134, rec, Caseonly, CVD, pravastatin vs placebo
  OR: 1.56
rs4643388, add, Caseonly, CVD, pravastatin vs placebo
  OR: 1.38
rs6911817, add, Caseonly, CVD, pravastatin vs placebo
  OR: 5.32
rs7327364, dom, Caseonly, CVD, pravastatin vs placebo
  OR: 0.64
rs7497613, rec, Caseonly, CVD, pravastatin vs placebo
  OR: 0.43
rs7767024, add, Caseonly, CVD, pravastatin vs placebo
  OR: 1.69
rs8051893, dom, Caseonly, CVD, pravastatin vs placebo
  OR: 0.63
rs9658127, add, Caseonly, CVD, pravastatin vs placebo
  OR: 5.32
rs10088524, dom, Caseonly, CVD, pravastatin vs placebo
  OR: 1.80
rs11925875, dom, Caseonly, CVD, pravastatin vs placebo
  OR: 0.57
rs17076972 allele C REC Imputed
  OR: 1.85
rs17189710 allele T ADD Imputed
  OR: 1.429
rs17196143 allele A ADD Imputed
  OR: 1.543
rs17353809 allele G ADD Imputed
  OR: 1.616
rs17446418 allele G DOM Imputed
  OR: 0.6878
rs17530747 allele T DOM Imputed
  OR: 0.6878
rs17546598, dom, Caseonly, CVD, pravastatin vs placebo
  OR: 2.07
rs17604285 allele C ADD Imputed
  OR: 0.4148
rs17604285 allele C DOM Imputed
  OR: 0.4153
rs17662322 allele T DOM Imputed
  OR: 0.6835
rs17769826 allele T ADD Imputed
  OR: 1.616
rs17821641 allele T ADD Imputed
  OR: 1.571
rs151806, source cohort, model dom
  WOSCOPS OR: 0.67
rs205279, source Caseonly, model add
  WOSCOPS OR: 1.60
rs312929, source cohort, model add
  WOSCOPS OR: 0.79
rs316720, source cohort, model add
  WOSCOPS OR: 0.78
rs354342, source Caseonly, model add
  WOSCOPS OR: 0.62
rs610118, source Caseonly, model dom
  WOSCOPS OR: 0.62
rs624460, source cohort, model add
  WOSCOPS OR: 0.74
rs669684, source cohort, model add
  WOSCOPS OR: 0.77
rs945020, source cohort, model dom
  WOSCOPS OR: 0.72
rs1035618, source Caseonly, model add
  WOSCOPS OR: 1.48
rs1051344, source cohort, model dom
  WOSCOPS OR: 0.64
rs1167245, source Caseonly, model dom
  WOSCOPS OR: 0.51
rs1349282, source cohort, model dom
  WOSCOPS OR: 0.55
rs1861326, source Caseonly, model dom
  WOSCOPS OR: 0.67
rs2023650, source Caseonly, model add
  WOSCOPS OR: 0.62
rs2145540, source Caseonly, model dom
  WOSCOPS OR: 0.70
rs2157673, source Caseonly, model add
  WOSCOPS OR: 1.56
rs2231496, source Caseonly, model add
  WOSCOPS OR: 0.67
rs2268650, source Caseonly, model dom
  WOSCOPS OR: 0.71
rs2376764, source Caseonly, model rec
  WOSCOPS OR: 0.48
rs2492367, source cohort, model add
  WOSCOPS OR: 0.68
rs2495295, source Caseonly, model dom
  WOSCOPS OR: 0.66
rs2534752, source cohort, model dom
  WOSCOPS OR: 1.74
rs2695026, source Caseonly, model add
  WOSCOPS OR: 0.61
rs2793086, source Caseonly, model add
  WOSCOPS OR: 0.72
rs2843171, source Caseonly, model dom
  WOSCOPS OR: 0.61
rs3213616, source cohort, model add
  WOSCOPS OR: 0.62
rs3798544, source Caseonly, model dom
  WOSCOPS OR: 1.78
rs4243071, source Caseonly, model rec
  WOSCOPS OR: 0.41
rs4626316, source cohort, model dom
  WOSCOPS OR: 0.38
rs4866354, source Caseonly, model dom
  WOSCOPS OR: 0.31
rs4869033, source Caseonly, model rec
  WOSCOPS OR: 0.47
rs4986146, source cohort, model add
  WOSCOPS OR: 0.66
rs4993917, source Caseonly, model dom
  WOSCOPS OR: 0.67
rs5017584, source Caseonly, model rec
  WOSCOPS OR: 1.98
rs5021480, source Caseonly, model rec
  WOSCOPS OR: 1.87
rs7179134, source cohort, model rec
  WOSCOPS OR: 3.50
rs7612715, source cohort, model add
  WOSCOPS OR: 0.55
rs7671659, source cohort, model dom
  WOSCOPS OR: 1.43
rs9292827, source Caseonly, model dom
  WOSCOPS OR: 0.27
rs9375683, source cohort, model dom
  WOSCOPS OR: 1.31
rs9487284, source cohort, model dom
  WOSCOPS OR: 0.70
rs9896077, source cohort, model dom
  WOSCOPS OR: 0.71
rs10088505, source Caseonly, model dom
  WOSCOPS OR: 1.78
rs10444402, source Caseonly, model add
  WOSCOPS OR: 0.65
rs10494924, source Caseonly, model dom
  WOSCOPS OR: 0.68
rs10517923, source Caseonly, model rec
  WOSCOPS OR: 1.60
rs10849442, source Caseonly, model rec
  WOSCOPS OR: 0.59
rs10889215, source cohort, model add
  WOSCOPS OR: 1.95
rs11076320, source Caseonly, model dom
  WOSCOPS OR: 0.68
rs11610993, source Caseonly, model dom
  WOSCOPS OR: 0.49
rs12155847, source Caseonly, model dom
  WOSCOPS OR: 1.61
rs17347854, source Caseonly, model dom
  WOSCOPS OR: 0.62
rs17740227, source Caseonly, model dom
  WOSCOPS OR: 1.53
rs33910446, source Caseonly, model rec
  WOSCOPS OR: 2.23
rs72746987, source Caseonly, model dom
  WOSCOPS OR: 0.34
